From US20090253669A1, “Substituted Sulfonamide Compounds” (GRUENENTHAL GmbH, priority 2008, published 2009)
Read-outs that look alike come from different tables or passages of the source.

What was measured:
[1] = target: T1, B1R receptor of the rat (rB1R) (Rattus norvegicus, UniProt P97583); experiment: FLIPR Ca2+ assay on rB1R-transfected CHO K1 cells, antagonistic action; assay type: cell-based
T1 construct: host or cells: CHO K1 cells
T1 sequence (P97583 1-337): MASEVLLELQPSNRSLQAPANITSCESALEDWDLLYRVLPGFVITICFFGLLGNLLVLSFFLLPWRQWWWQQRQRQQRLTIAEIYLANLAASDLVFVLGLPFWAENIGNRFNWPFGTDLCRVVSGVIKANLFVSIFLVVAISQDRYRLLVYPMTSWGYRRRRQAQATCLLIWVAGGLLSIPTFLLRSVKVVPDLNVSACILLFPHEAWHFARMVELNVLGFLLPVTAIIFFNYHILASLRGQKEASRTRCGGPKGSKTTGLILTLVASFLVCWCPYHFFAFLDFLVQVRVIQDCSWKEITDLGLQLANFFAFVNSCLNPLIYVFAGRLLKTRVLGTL

[2] = target: T2, human B1R receptor (hB1R) (Homo sapiens, UniProt P46663); experiment: FLIPR Ca2+ assay on hB1R-transfected CHO K1 cells, antagonistic action; assay type: cell-based
T2 construct: host or cells: CHO K1 cells
T2 sequence (P46663 1-353): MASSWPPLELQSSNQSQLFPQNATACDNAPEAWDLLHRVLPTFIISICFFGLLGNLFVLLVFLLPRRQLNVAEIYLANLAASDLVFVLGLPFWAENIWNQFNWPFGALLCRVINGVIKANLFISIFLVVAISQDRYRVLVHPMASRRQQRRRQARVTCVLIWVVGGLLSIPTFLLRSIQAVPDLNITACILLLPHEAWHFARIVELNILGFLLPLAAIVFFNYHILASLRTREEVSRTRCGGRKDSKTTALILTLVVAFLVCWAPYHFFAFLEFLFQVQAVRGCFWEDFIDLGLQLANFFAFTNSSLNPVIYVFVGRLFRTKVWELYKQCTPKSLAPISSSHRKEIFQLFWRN

[3] = CHO-K1, 10 μM test substance, agonist Des-Arg9-bradykinin 100 nM, % of maximum achievable inhibition, read-out: rB1R [10 μM] % inhibition
[4] = CHO-K1, 10 μM test substance, agonist Lys-Des-Arg9-bradykinin 0.5 nM, % of maximum achievable inhibition, read-out: hB1R [10 μM] % inhibition

SMILES	inhibition at 10 µM [1, 3] [%]	inhibition at 10 µM [2, 4] [%]	inhibition at 10 µM ([1]; CHO-K1, read-out: rB1R [10 μM] % inhibition) [%]	inhibition at 10 µM ([2]; CHO-K1, read-out: hB1R [10 μM] % inhibition) [%]
COc1cc(C)c(S(=O)(=O)N(C)CCOCC(=O)NC2CCC(c3ccccc3)(N3CCCC3)CC2)c(C)c1 (centres unmarked) [Compound 150, 2-(2-(4-methoxy-N,2,6-trimethylphenylsulfonamido)ethoxy)-N-(4-phenyl-4-(pyrrolidin-1-yl)cyclohexyl)acetamide]	104	102	–	–
COc1cc(C)c(S(=O)(=O)N2CCCCC2COCC(=O)N(C)CCC2CCC(CCc3ccccc3)(N(C)C)CC2)c(C)c1 (centres unmarked) [Compound 73, N-(2-(4-(dimethylamino)-4-phenethylcyclohexyl)ethyl)-2-((1-(4-methoxy-2,6-dimethylphenylsulfonyl)piperidin-2-yl)methoxy)-N-methylacetamide]	99	104	–	–
O=C(COCC1CCc2ccccc2N1S(=O)(=O)c1ccc(Cl)c(Cl)c1)N1CCC(c2ccccc2)(N2CCN(c3ccncc3)CC2)CC1 (centres unmarked) [Compound 100, 2-((1-(3,4-dichlorophenylsulfonyl)-1,2,3,4-tetrahydroquinolin-2-yl)methoxy)-1-(4-phenyl-4-(4-(pyridin-4-yl)piperazin-1-yl)piperidin-1-yl)ethanone]	88	51	–	–
O=C(COCC1CCCN1S(=O)(=O)c1c(Cl)cc(Cl)cc1Cl)NC1CCC(c2ccccc2)(N2CCCC2)CC1 (centres unmarked) [Compound 146, N-(4-phenyl-4-(pyrrolidin-1-yl)cyclohexyl)-2-((1-(2,4,6-trichlorophenylsulfonyl)pyrrolidin-2-yl)methoxy)acetamide]	108	64	–	–
CN(CCCC1CCC(c2ccccc2)(N2CCCC2)CC1)C(=O)CC(NS(=O)(=O)c1ccc2ccccc2c1)c1ccccc1 (centres unmarked) [Compound 128, N-methyl-3-(naphthalene-2-sulfonamido)-3-phenyl-N-(3-(4-phenyl-4-(pyrrolidin-1-yl)cyclohexyl)propyl)propanamide]	53	98	–	–
CN1CCN(C2(c3cccc(F)c3)CCN(C(=O)COCC3CCCCN3S(=O)(=O)c3ccccc3C(F)(F)F)CC2)CC1 (centres unmarked) [Compound 225, 1-(4-(3-Fluorophenyl)-4-(4-methylpiperazin-1-yl)piperidin-1-yl)-2-((1-(2-(trifluoromethyl)phenylsulfonyl)piperidin-2-yl)methoxy)ethanone]	–	–	101	100
COc1cc(C)c(S(=O)(=O)N2CCCCC2COCC(=O)N(C)CCCC2CCC(c3ccccc3)(N(C)C)CC2)c(C)c1 (centres unmarked) [Compound 203, N-(3-(4-(dimethylamino)-4-phenylcyclohexyl)propyl)-2-((1-(4-methoxy-2,6-dimethylphenylsulfonyl)piperidin-2-yl)methoxy)-N-methylacetamide]	98	99	–	–
CN(CC1CCC(CCc2ccccc2)(N2CCCC2)CC1)C(=O)CC1CCCCN1S(=O)(=O)c1cccc(C(F)(F)F)c1 (centres unmarked) [Compound 38, N-methyl-N-((4-phenethyl-4-(pyrrolidin-1-yl)cyclohexyl)methyl)-2-(1-(3-(trifluoromethyl)phenylsulfonyl)piperidin-2-yl)acetamide]	101	98	–	–
COc1cc(C)c(S(=O)(=O)N(C)CCOCC(=O)N(C)CCC2CCC(CCc3ccccc3)(N3CCCC3)CC2)c(C)c1 (centres unmarked) [Compound 58, 2-(2-(4-methoxy-N,2,6-trimethylphenylsulfonamido)ethoxy)-N-methyl-N-(2-(4-phenethyl-4-(pyrrolidin-1-yl)cyclohexyl)ethyl)acetamide]	100	103	–	–
COc1cc(C)c(S(=O)(=O)N(C)CCOCC(=O)N2CCC(c3ccccc3)(N3CCN(C)CC3)CC2)c(C)c1 [Compound 41, 4-methoxy-N,2,6-trimethyl-N-(2-(2-(4-(4-methylpiperazin-1-yl)-4-phenylpiperidin-1-yl)-2-oxoethoxy)ethyl)benzenesulfonamide]	101	103	–	–
COc1cc(C)c(S(=O)(=O)N2CCCCC2COCC(=O)NC2CCC(Cc3ccccc3)(N3CCCC3)CC2)c(C)c1 (centres unmarked) [Compound 149, N-(4-benzyl-4-(pyrrolidin-1-yl)cyclohexyl)-2-((1-(4-methoxy-2,6-dimethylphenylsulfonyl)piperidin-2-yl)methoxy)acetamide]	105	103	–	–
COc1cc(C)c(S(=O)(=O)N(C)CCOCC(=O)NCC2CCC(Cc3ccccc3)(N3CCOCC3)CC2)c(C)c1 (centres unmarked) [Compound 188, N-((4-benzyl-4-morpholinocyclohexyl)methyl)-2-(2-(4-methoxy-N,2,6-trimethylphenylsulfonamido)ethoxy)acetamide]	63	95	–	–
COc1cc(C)c(S(=O)(=O)N(C)CCOCC(=O)N(C)CC2CCC(CCc3ccccc3)(N3CCN(C)CC3)CC2)c(C)c1 (centres unmarked) [Compound 165, 2-(2-(4-methoxy-N,2,6-trimethylphenylsulfonamido)ethoxy)-N-methyl-N-((4-(4-methylpiperazin-1-yl)-4-phenethylcyclohexyl)methyl)acetamide]	90	103	–	–
COc1cc(C)c(S(=O)(=O)N2CCCC(OCC(=O)NC3CCC(Cc4ccccc4)(N4CCCC4)CC3)C2)c(C)c1 (centres unmarked) [Compound 181, N-(4-benzyl-4-(pyrrolidin-1-yl)cyclohexyl)-2-(1-(4-methoxy-2,6-dimethylphenylsulfonyl)piperidin-3-yloxy)acetamide]	71	78	–	–
Cc1cc(S(=O)(=O)N2CCCCC2CCC(=O)N2CCC(Cc3ccccc3)(N3CCN(C)CC3)CC2)c(C)cc1Cl (centres unmarked) [Compound 130, 1-(4-benzyl-4-(4-methylpiperazin-1-yl)piperidin-1-yl)-3-(1-(4-chloro-2,5-dimethylphenylsulfonyl)piperidin-2-yl)propan-1-one]	49	102	–	–
COc1cc(C)c(S(=O)(=O)N2CCCCC2COCC(=O)N(C)CCC2CCC(CCc3ccccc3)(N3CCCC3)CC2)c(C)c1 (centres unmarked) [Compound 46, 2-((1-(4-methoxy-2,6-dimethylphenylsulfonyl)piperidin-2-yl)methoxy)-N-methyl-N-(2-(4-phenethyl-4-(pyrrolidin-1-yl)cyclohexyl)ethyl)acetamide]	100	104	–	–
COc1cc(C)c(S(=O)(=O)N2CCCCC2COCC(=O)N2CCC(c3ccccc3)(N3CCN(C)CC3)CC2)c(C)c1 (centres unmarked) [Compound 49, 2-((1-(4-methoxy-2,6-dimethylphenylsulfonyl)piperidin-2-yl)methoxy)-1-(4-(4-methylpiperazin-1-yl)-4-phenylpiperidin-1-yl)ethanone]	100	103	–	–
COc1cc(C)c(S(=O)(=O)N(C)CCOCC(=O)NCC2CCC(c3ccccc3)(N3CCOCC3)CC2)c(C)c1 (centres unmarked) [Compound 185, 2-(2-(4-methoxy-N,2,6-trimethylphenylsulfonamido)ethoxy)-N-((4-morpholino-4-phenylcyclohexyl)methyl)acetamide]	65	93	–	–
Cc1cc(S(=O)(=O)N2CCCCC2CCC(=O)N(C)CC2CCC(CCc3ccccc3)(N3CCCC3)CC2)c(C)cc1Cl (centres unmarked) [Compound 141, 3-(1-(4-chloro-2,5-dimethylphenylsulfonyl)piperidin-2-yl)-N-methyl-N-((4-phenethyl-4-(pyrrolidin-1-yl)cyclohexyl)methyl)propanamide]	20	104	–	–
COc1cc(C)c(S(=O)(=O)N(C)CCOCC(=O)N2CCC(CCc3ccccc3)(N(C)C)CC2)c(C)c1 [Compound 48, N-(2-(2-(4-(dimethylamino)-4-phenethylpiperidin-1-yl)-2-oxoethoxy)ethyl)-4-methoxy-N,2,6-trimethylbenzenesulfonamide]	100	102	–	–
COc1cc(C)c(S(=O)(=O)N2CCCC(OCC(=O)N(C)CC3CCC(Cc4ccccc4)(N4CCN(C)CC4)CC3)C2)c(C)c1 (centres unmarked) [Compound 184, N-((4-benzyl-4-(4-methylpiperazin-1-yl)cyclohexyl)methyl)-2-(1-(4-methoxy-2,6-dimethylphenylsulfonyl)piperidin-3-yloxy)-N-methylacetamide]	65	93	–	–
CN(C)C1(c2ccccc2)CCC(NC(=O)COCCN(C)S(=O)(=O)c2c(Cl)cc(Cl)cc2Cl)CC1 (centres unmarked) [Compound 199, N-(4-(dimethylamino)-4-phenylcyclohexyl)-2-(2-(2,4,6-trichloro-N-methylphenylsulfonamido)ethoxy)acetamide]	36	76	–	–
